In patent publication US10544156B2, “Hemi-synthetic trilobine analogs for use as a drug” (PIERRE FABRE MEDICAMENT, priority 2015, dated 2020):

Columns and labels:
[1] = test system: P73 promoter in HCT116; assay: C5 DNA methylation analysis of P73 promoter; format: cell-based, human; details: after 7 days, at 0.32 μM
Method: (§1) Cancer cell lines (colon HCT116 or leukaemia KG1) were treated with the compounds as indicated in the Data Tables and then analysed as following.
(§2) DNA was isolated from cultured cells using the DNeasy Blood and Tissue Kit according to the manufacturer's specifications (Qiagen). DNA bisulphite conversion was performed on 2 μg of DNA using the EZ DNA Methylation-Gold Kit according to the manufacturer's specifications (Zymo Research) and bisulfited DNA was eluted with 10 μL of water.
(§3) Two different techniques were used to analyse the DNA methylation profile after bisulfite conversion of genomic DNA: (A) cloning and sequencing or (B) COBRA. The primers for each promoter are specified in Table 4.
(§4) Sequencing of bisulfite-treated DNA allowing resolution of the methylation state of every cytosine in the target sequence, at single molecule resolution, is considered as the “gold standard” for DNA methylation analysis.
(§5) Bisulfite-specific primers with a minimum length of 18 bp were designed using Primer 3 program. […]
(§6) PCR amplicons were cloned with the StrataClone Ultra Blunt PCR Cloning Kit (Agilent Technologies), according to the manufacturers' instructions and up to 24 clones were picked for sequencing. […] Electrophoregram files and methylation signals at a given CpG site were quantified using the BISMA software as described above.

[2] = test system: P15 promoter in leukaemia KG1 cells; assay: C5 DNA methylation analysis of CDKN2B (P15) promoter; format: cell-based, human; details: after 3 days, at 0.32 μM
Method: as §1, §2, §3, §4, §5, §6

Row | SMILES | Demethylation P73*/HCT116 [1] | Demethylation P15/KG1 [2] [% after]
1 | CNC(=O)N1CCc2cc(OC)c3c4c2[C@@H]1Cc1ccc(cc1)Oc1cc(ccc1OC)C[C@H]1c2cc(c(cc2CCN1C)O3)O4 [Product 44] | *−17% after 7 days | –
2 | COc1ccc2cc1Oc1ccc(cc1)C[C@@H]1NCCc3cc(OC)c4c(c31)Oc1cc3c(cc1O4)CCN(C)[C@H]3C2 [Trilobine (1), trilobine] | – | −25
3 | CCN(CC)CCCNC(=S)N1CCc2cc3c4cc2[C@@H]1Cc1ccc(OC)c(c1)Oc1ccc(cc1)C[C@H]1c2c(cc(OC)c(c2O4)O3)CCN1C(=S)NCCCN(CC)CC [Product 41] | *−24% after 7 days | –
